The values that follow come from patent US9115122B2, “Non-ATP dependent inhibitors of extracellular signal-regulated kinase (ERK)” (UNIVERSITY OF MARYLAND, BALTIMORE, priority 2012, dated 2015).

For orientation: GI50 means the concentration giving 50% growth inhibition. The IC50 is the concentration at which inhibition is half-maximal.

One data set concerns the target ERK2 wild type (WT) (Rattus norvegicus (Rat), UniProt P63086). Briefly: Fluorescence quenching (FQ) binding affinity. To be noted: 1 nM to 20 μM test compound.
The target in the next data set is ERK2 T157A (Rattus norvegicus (Rat), UniProt P63086, T157A). Briefly: Fluorescence quenching (FQ) binding affinity. Particulars: read-out: KD T157A (Site1).
In another data set the target is ERK2 D319N (Rattus norvegicus (Rat), UniProt P63086, D319N). Put plainly: Fluorescence quenching (FQ) binding affinity. To be noted: read-out: KD D319N (Site1).
The next data set has as its target ERK2 T157A/D319N (Rattus norvegicus (Rat), UniProt P63086, D319N/T157A). Briefly: Fluorescence quenching (FQ) binding affinity. Particulars: read-out: KD T157A/D319N (Site1).
The test system of data set [1] is A375 melanoma cells. Put plainly: Cell proliferation WST-1 assay, single dose (Example 4). Type of data set: cell-based. Particulars: 100 μM, 48 hours. The method in brief: (§1)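 WST-1 absorbance at 450 nm (minus 650 nm background) after 48 h compound treatment; data expressed relative to DMSO-treated controls. Seeding ~5000 cells/well, 16-20 h recovery before dosing.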
(In general: Tetrazolium dyes change colour on reduction, which living cells bring about.)

The subject of another data set is HL-60 leukemic cells. Described as above. Type of data set: cell-based. To be noted: 100 μM, 48 hours. The method in brief:
as §1

The test system of data set [2] is HeLa cervical carcinoma cells. The description is as above. It counts as cell-based. To be noted: 100 μM, 48 hours. The method in brief:
as §1

For data set [3], the system named is Jurkat T-cell leukemia cells. The data set is described as above. Type of data set: cell-based. To be noted: 100 μM, 48 hours. Summed up: as §1
The next data set has as its system RPMI-7951 melanoma cells. The data set is described as above. It counts as cell-based. Particulars: 100 μM, 48 hours. The method in brief: as §1
The subject of data set [4] is SK-MEL-28 melanoma cells. The description is as above. Type of data set: cell-based. To be noted: 100 μM, 48 hours. The method in brief:
as §1

For data set [5], the system named is A375 melanoma cells. Briefly: Dose-response growth inhibition (GI50) of select compounds. Type of data set: cell-based. To be noted: Homo sapiens, A-375, 48 h, two days. As to the method:
(§2) An example of the dose response curve for compound 30h and the BRaf inhibitor PLX4032 for inhibiting the growth of melanoma cell lines is shown in FIG. 14. […] A summary of GI50 values for select compounds along with comparisons to know ERK pathway inhibitors in various cell lines is shown in Table 13. […] First, thiazolidinedione compounds have been identified to be selective inhibitors of cancer cell lines containing activated ERK signaling. Second, changes in the 4-ethoxyphenyl component of the parent compound 76 improve selectivity and potency for inhibiting melanoma cell growth. Third, compound 30h is a potent inhibitor of melanoma cell lines that have become resistant to the clinically relevant BRaf and MEK inhibitors. […] Lastly, 30h is as potent as the ATP-competitive pyrazolopyridazinamine ERK inhibitor (FR180204) in preventing melanoma cell proliferation and provides an alternative non-ATP-dependent approach to target cancer cells that are dependent on active ERK signaling.
(§3) Melanoma cells (A375, SK-MEL-28, and RPMI7951) were seeded at a density of 5,000 per well in 96-well plate. After overnight incubation, cells were treated with varying doses of PLX4032 (A) or 31h (B) for two days. Cell viability was determined by the addition of Cell Titer-Blue Reagent (20 μL/well) followed by 2 hours of incubation at 37° C. after which fluorescence was recorded (555/585 nm). Cell viability was expressed as percentage of vehicle control and data represent the average of three individual experiments.

In another data set the test system is RPMI7951 melanoma cells. The description is as above. Type of data set: cell-based. Particulars: Homo sapiens, RPMI-7951, 48 h, two days. The procedure:
as §2, §3

Data set [6] has as its system SK-MEL-28 melanoma cells. The data set is described as above. To be noted: Homo sapiens, SK-MEL-28, 48 h, two days. It counts as cell-based. The procedure: as §2, §3
Another data set deals with HeLa cells. The data set is described as above. Type of data set: cell-based. To be noted: Homo sapiens, HeLa.
A further data set concerns Jurkat cells. The data set is described as above. It counts as cell-based. Particulars: Homo sapiens, Jurkat.
Data set [7] concerns activator protein-1 (AP-1) promoter. Put plainly: AP-1 promoter luciferase assay, HeLa cells (Example 4). It counts as cell-based. To be noted: Homo sapiens, EGF 25 ng/mL, read-out: estimated IC50 AP-1 promoter activity. The procedure: (§4) HeLa cells were seeded in 24-well plates (4×10^4 cells/well) and incubated 18 hours prior to achieve ˜60-70% confluent. Cells were transfected with activator protein-1 (pAP1(PMA)-TA-Luc; Clontech) or the serum response element (pGL4.33-SRE; Promega) luciferase reporter plasmids (250 ng/well) using Lipofectamine™ (Invitrogen). After 16 hours, cells were treated with increasing amount of compounds as indicated for 20 minutes, followed by stimulation with EGF (25 ng/mL) for 4.5 hr. The luciferase activity in the cell extracts was determined with a Dual Luciferase Assay System (Promega) according to the manufacturer's instructions. Luciferase activities were monitored with a Lumat LB 9507 luminometer (Berthold Technology) and data were normalized to the amount of protein in each sample.

Data set [8] has as its system serum response element (SRE). Put plainly: SRE promoter luciferase assay, HeLa cells (Example 4). It counts as cell-based. Particulars: Homo sapiens, EGF 25 ng/mL, read-out: estimated IC50 SRE promoter activity. The procedure: as §4
Data set [9] relates to A549 lung carcinoma cells. Put plainly: Colony formation assay. It counts as cell-based. To be noted: Homo sapiens, read-out: IC50 growth inhibition, colony formation, A549. As to the method: (§5) We have successfully used computer-aided drug design (CADD) to search for low-molecular-weight docking domain inhibitors of ERK. One of the compounds, identified as 76, binds ERK2 with a Kd value of 5 μM and blocks phosphorylation of the downstream ERK targets RSK-1 and Elk-1. Moreover, 76 inhibited growth of HeLa cervical carcinoma and A549 lung carcinoma cells as assessed by colony formation assay in a dose dependent manner with IC50 values of ˜20 μM.

Data set [10] relates to HeLa cervical carcinoma cells. Put plainly: Colony formation assay. To be noted: Homo sapiens, read-out: IC50 growth inhibition, colony formation, HeLa. Type of data set: cell-based. As to the method: as §5

Chain of ERK2 T157A (P63086 whole entry T157A): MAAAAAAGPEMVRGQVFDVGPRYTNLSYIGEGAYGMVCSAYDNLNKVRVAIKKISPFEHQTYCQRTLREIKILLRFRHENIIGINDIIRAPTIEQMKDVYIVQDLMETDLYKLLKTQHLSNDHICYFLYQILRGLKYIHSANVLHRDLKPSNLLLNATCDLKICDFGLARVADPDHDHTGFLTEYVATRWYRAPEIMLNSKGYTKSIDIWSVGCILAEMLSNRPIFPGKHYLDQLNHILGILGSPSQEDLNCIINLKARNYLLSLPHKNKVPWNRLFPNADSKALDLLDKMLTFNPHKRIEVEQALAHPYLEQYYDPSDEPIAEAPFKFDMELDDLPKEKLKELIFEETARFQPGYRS
Chain of ERK2 T157A/D319N (P63086 whole entry T157A/D319N): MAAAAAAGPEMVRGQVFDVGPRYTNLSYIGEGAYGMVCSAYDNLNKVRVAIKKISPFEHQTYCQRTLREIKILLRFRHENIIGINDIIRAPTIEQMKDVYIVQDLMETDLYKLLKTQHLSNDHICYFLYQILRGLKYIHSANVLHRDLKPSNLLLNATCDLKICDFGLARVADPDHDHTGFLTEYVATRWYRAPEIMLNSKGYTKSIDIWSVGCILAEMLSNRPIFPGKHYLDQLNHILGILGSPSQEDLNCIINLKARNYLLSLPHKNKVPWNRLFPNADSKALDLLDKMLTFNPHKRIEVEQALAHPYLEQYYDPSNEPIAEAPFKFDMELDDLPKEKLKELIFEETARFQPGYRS
Chain of ERK2 wild type (WT) (P63086 whole entry): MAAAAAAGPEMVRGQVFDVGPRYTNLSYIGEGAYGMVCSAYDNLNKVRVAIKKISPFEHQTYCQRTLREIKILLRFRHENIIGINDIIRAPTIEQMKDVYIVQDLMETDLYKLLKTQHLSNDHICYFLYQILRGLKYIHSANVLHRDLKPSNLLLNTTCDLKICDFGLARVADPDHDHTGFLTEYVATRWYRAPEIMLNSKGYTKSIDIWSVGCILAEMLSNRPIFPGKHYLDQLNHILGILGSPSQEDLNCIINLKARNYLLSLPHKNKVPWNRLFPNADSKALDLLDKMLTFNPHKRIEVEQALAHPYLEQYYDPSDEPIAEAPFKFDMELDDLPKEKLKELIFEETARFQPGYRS
Chain of ERK2 D319N (P63086 whole entry D319N): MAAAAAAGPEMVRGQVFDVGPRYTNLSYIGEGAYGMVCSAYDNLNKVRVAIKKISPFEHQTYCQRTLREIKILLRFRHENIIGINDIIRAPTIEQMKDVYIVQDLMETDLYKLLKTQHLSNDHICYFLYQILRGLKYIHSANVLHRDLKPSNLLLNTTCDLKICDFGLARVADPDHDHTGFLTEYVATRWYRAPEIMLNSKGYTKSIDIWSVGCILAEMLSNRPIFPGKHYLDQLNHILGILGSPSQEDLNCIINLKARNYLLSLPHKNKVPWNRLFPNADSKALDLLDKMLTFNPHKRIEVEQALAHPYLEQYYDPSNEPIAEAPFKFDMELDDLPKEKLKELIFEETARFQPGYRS

Consider `CCOc1ccc(/C=C2\SC(=O)N(CCN)C2=O)cc1` [Compound 76, (Z)-3-(2-aminoethyl)-5-(4-ethoxybenzylidene)thiazolidine-2,4-dione], for which the Kd on ERK2 wild type (WT) was found to be 5 µM; on ERK2 T157A, 6.1 ± 0.6 µM; at ERK2 D319N, 7 ± 1 µM; on ERK2 T157A/D319N, 6.4 ± 0.3 µM. Further, the “Cell Viability (% of Vehicle) A375” value in the data set with A375 melanoma cells [1] is listed as 2.1 ± 2 % of Vehicle. In addition, the “Cell Viability (% of Vehicle) HL-60” value in the data set on HL-60 leukemic cells is 4.4 ± 1 % of Vehicle. Besides, in [2], the “Cell Viability (% of Vehicle) HeLa” value is 53 ± 3 % of Vehicle. For the same compound, the “Cell Viability (% of Vehicle) Jurkat” value in data set [3] was 59 ± 5 % of Vehicle. In the data set on RPMI-7951 melanoma cells, the “Cell Viability (% of Vehicle) RPMI-7951” value is 0.3 ± 0.02 % of Vehicle. Besides, the “Cell Viability (% of Vehicle) SK-MEL-28” value with SK-MEL-28 melanoma cells [4] is 11 ± 7 % of Vehicle. Also, the GI50 in the data set on A375 melanoma cells [5] was 29 µM; in the data set on RPMI7951 melanoma cells it was 46 µM; in the data set on SK-MEL-28 melanoma cells [6], 34 µM; in the data set on HeLa cells it was more than 100 µM; with Jurkat cells, more than 100 µM. Also, the IC50 was not above 5 µM in data set [7], not above 5 µM in data set [8], approximately 20 µM in data set [9] and approximately 20 µM in data set [10].
